Counter-ions that a name gives are not always drawn.
Test: Comparison of supported amounts by HPLC (Test Example 8)
Format: physicochemical
Conditions: porous Example 6 microparticles (Examples 10 to 15) versus raw material ethyl cellulose powder (Comparative Examples 6 to 11)
Description: The supported amount ratio of a physiologically active substance between microparticles in an example and microparticles in a comparative example supporting the same physiologically active substance was calculated on the basis of the following equation. HPLC measurement was carried out as follows. After weighing 25 mg each of the microparticles in the examples and the comparative examples, the microparticles were respectively put in 50-mL volumetric flasks. Each type of microparticles was completely dissolved in 5 mL of ethanol added, and the solution was diluted with deionized water added and passed through a 0.45-μm filter to provide an HPLC sample. The sample was measured under the same conditions as for Test Example 5.

SMILES	Support amount ratio (=example/comparative example)
CC(C)Cc1ccc(C(C)C(=O)O)cc1 (stereo not drawn) [Ibuprofen, ibuprofen]	1.2
O=C(O)c1ccccc1O [Salicylic acid, salicylic acid]	1.6
Cn1c(=O)c2[nH]cnc2n(C)c1=O [Theophylline, theophylline]	1.2
Cc1ncc(C[n+]2csc(CCO)c2C)c(N)n1 [Thiamine hydrochloride, thiamine hydrochloride]	10.7

Other lines, results leading:

Support amount ratio (=example/comparative example)	SMILES
1.4	CC(=O)Nc1ccc(O)cc1 [Acetaminophen, acetaminophen]
1.8	C=C[C@H]1C[N@@]2CC[C@H]1C[C@H]2[C@H](O)c1ccnc2ccc(OC)cc12 [Quinine hydrochloride dihydrate, quinine hydrochloride dihydrate]

Source: patent publication US20180338927A1, “ETHER CELLULOSE DERIVATIVE MICROPARTICLE” (Toray Industries, Inc., priority 2015, published 2018)
